Results from patent publication US5328823A, “Enzyme-based biosensors for detecting noble gases” (American Air Liquide, priority 1992, dated 1994).

How the values were obtained:
Tyrosinase [1] = test: Gas biosensor diffusion cell, Tyrosinase/L-Tyrosine reaction monitored at 305 nm, Curlon Grade 861 film; type: biochemical, Mushroom; details: gas in upper chamber of diffusion cell, 25° C.; for maximum change in enzymatic activity, Reference Air: compared to air diffusion through the film; for maximum change in enzymatic activity, Reference Nitrogen: compared to nitrogen
Source text: Construction consists of coupling two 1-cm lightpath UV grade methacrylate covets with a ring of 100% silicone rubber (General Purpose Sealant, Dow Corning) applied on their outside rim. Before sealing with silicone, a 1-cm^2 square of a polymeric film of known permeabilities to the different gases is placed between the two cuvettes. Holes have been previously drilled in each covet (drill bit 7/64") to receive a septum (d=3 mm; h=8 mm; Supelco No. 3-3301M). 100% silicone rubber was applied around the septa to avoid possible leaks.
Tyrosinase/L-Tyrosine monitored at 305 nm
Enzyme: Tyrosinase (SIGMA No. T-7755) (Monophenol monooxygenase; Polyphenol oxidase; Catechol oxidase; Monophenol, dihydroxyphenylalanine: oxygen oxidoreductase; From Mushroom
Chamber 1 (upper) is flushed for 2 […] with 100% nitrogen (very low flow to prevent tearing of the polymeric film: line delivery pressure <5 psi) at ambient temperature (25° C.), using 22G11/2 needles (small gauge to reduce risks of leakage through holes in septa).
Chamber 2 (lower) is flushed in the same way as chamber 1.
Chamber 2 is then filled with 2.0 ml of N2 -saturated solution C, by means of a 3 cc syringe (previously purged with N2).
Before the spectrophotometric run, 20 cc of the appropriate gas (Air, N2, Ar, Kr, Xe) is passed through chamber 1 of each of the 3 diffusion cells simultaneously, by means of a 30 cc syringe.
Following immediately, the run starting time t0 is given by the simultaneous injections of 0.5 ml of N2 -saturated-solution B in chamber 2 of each diffusion cell. The 1 cc syringes used for sampling the 0.5 ml are previously purged with N2.
A selected example is given below for one of the enzymatic system/polymeric film tandems assayed. Given as well is the maximum change in enzymatic activity noted compared to the reaction resulting from air diffusion through the film, or compared to nitrogen. A sample graphic data output file is appended.
Polymeric film insert in diffusion cells: Curlon Grade 861 (CURWOOD).
Biochemical reaction (monitored at 305 nm): Tyrosinase/L-Tyrosine at 25° C. and optimal reaction conditions, gas in upper chamber of the diffusion cell being: […]

Tyrosinase [2] = test: Tyrosinase/L-tyrosine biosensing bag (Curlon Grade 861) placed in gas-packaged food packages, rate of colour change; type: biochemical, Mushroom
Source text: The above mentioned oxido-reductase system (tyrosinase/L-tyrosine) is placed inside a 3 cc bag by heat-sealing of the polymeric film used in protocol described above (Curlon Grade 861, Curwood).
The 3 cc bag is placed into a series of packages containing food products under different gas mixtures, which include neon, argon, krypton, xenon, oxygen, nitrogen and carbon dioxide. The relative rate of changing color of the device, that is the development of a pink-brown color, is monitored over time.
A similar series is run, but after holes have been punctured in the packages to simulate leaks. The rate of changing color is then monitored. Thus we have made a leak detection system.
In the same manner, the exchange of gases through the film of the packages and the change in respiration of fresh horticultural commodities can also be monitored. […] Preparation of a standard curve permits detection of each type of gas mix relative to the other, and also permits detection of a change in oxygen level caused by vegetable respiration.

β-D-Glucosidase = test: β-D-Glucosidase/p-Nitrophenyl-β-D-Glucopyranoside biosensing bag (PE 2 mil) in gas-packaged produce, rate of yellow colour change; type: biochemical, Almonds; details: packaged vegetables, compared with nitrogen packaged produce; acceleration rather than inhibition
Source text: The above mentioned hydrolase system (β-D-Glucosidase/p-Nitrophenyl-β-D-Glucopyranoside) is placed inside a 3 cc bag by heat-sealing of the polymeric film used in protocol described above (PE 2 mil).
The protocol followed is the same as described in the third detailed example of the invention, except for the fact that the colorigenic reaction observed is yellow, and is an acceleration rather than an inhibition. Thus, Kr packaged vegetables will produce a yellow color change in the device faster than will nitrogen packaged produce.

particulate sialidase = details: highly impure enzymes; the patent calls these results questionable; cited from earlier work
[3] = per atmosphere of added nitrous oxide; independent of oxygen partial pressure; cited from earlier work

rate of changing color of the biosensing device (pink-brown) (Tyrosinase [2]; packaged vegetables, compared with the package under 100% N2) | rate of yellow color change in the device (β-D-Glucosidase) | rate of changing color of the biosensing device, case of a leak (Tyrosinase [2]; package under 100% gas, compared with 100% N2) | Compound | maximum change in enzymatic activity, Reference Air (Tyrosinase [1]) | maximum change in enzymatic activity, Reference Nitrogen (Tyrosinase [1]) | effect on activity of particulate sialidase (particulate sialidase) | inhibition per atmosphere of added gas [3]
turns color more slowly | – | – | [Ar] [Ar, argon] | -25% | -21% | – | –
– | faster | turns color more slowly | [Kr] [Kr, krypton] | -35% | -32% | – | –
– | – | – | [Xe] [Xe, xenon] | -30% | -26% | enhance the activity | –
– | – | – | FC(F)(F)C(Cl)Br (stereo not shown) [halothane] | – | – | enhance the activity | –
– | – | – | [N-]=[N+]=O [nitrous oxide] | – | – | enhance the activity | 1.9%
